Test: Human HepG2 cell viability assay in 384 well format
Assay type: toxicity, cell-based
Design: dose 125 nL, time 70.5 hour; concentration not given beside the values
Details: HepG2 cells, read-out: Inhibition

Row | Structure (SMILES) | cytotoxicity at 70.5 h
1 | COC(=O)Cn1nc(-c2ccccc2F)ccc1=O | 19.4%
2 | O=C(NCc1nnc2n1CCCC2)c1ccc(C2CCCO2)s1 (stereo unspecified) | 18.3%
3 | c1ccc(C[C@H]2[C@H](N3CCOCC3)CCN2Cc2cccnc2)cc1 | 2.51%
4 | CCc1n[nH]c(C2CN(Cc3nnc(C4CC4)n3C)CCO2)n1 (stereo unspecified) | 27.9%
5 | O=C(NCCC1=CCCCC1)c1ccc(-n2cccc2)nc1 | -3.84%
6 | CCN1CCC2(COCc3cnc(NCC4CC4)nc32)C1 (stereo unspecified) | -4.64%
7 | CCCN1CC2(CCN(C)CC2)CC1C(=O)NCCn1nc(C)nc1C (stereo unspecified) | 6.07%
8 | CCc1n[nH]c(C2CN(C(=O)COCC(F)(F)F)CCO2)n1 (stereo unspecified) | -10.6%
9 | O=C(Cc1ccccn1)N1C[C@@H]2CC[C@H](C1)N(Cc1ccccc1)C2=O | 6.93%
10 | Cc1cnc(N2CCC3(CCC(C(=O)NC(C)C)OC3)CC2)nc1 (stereo unspecified) | -2.25%
11 | CS(=O)(=O)NC1CCN(CCOCc2ccccc2)CC1 | -6.45%
12 | CCn1cc(CN2CCC(c3nnc(CN(C)C)n3CC)CC2)cn1 | 10.9%
13 | CC(C)Cc1cc(C(=O)NCCn2nc3ccccn3c2=O)[nH]n1 | -3.87%
14 | CC(O)CN1CCN(C(=O)c2ccc(N(C)C)nn2)CC1 (stereo unspecified) | -4.33%
15 | Cc1noc(C)c1CN1C[C@@H](OCc2ccccn2)[C@H]2OCCC[C@H]21 | -16.3%
16 | Cc1ccc(C(C)NC(=O)Cc2c(C)nc3c(c2C)c(=O)[nH]n3C)o1 (stereo unspecified) | -4.59%
17 | CC(=O)c1cccc(NC(=O)CN2CCCCC2C)c1 (stereo unspecified) | -2.56%
18 | c1ccc(-c2nc(CCNc3nnc(C4CCC4)o3)no2)cc1 | 15.9%
19 | FC1(F)CCN(Cc2ccccn2)CC12CCN(c1ncccn1)C2 (stereo unspecified) | -7.15%

Row | Structure (SMILES) | cytotoxicity at 70.5 h
20 | Cc1cnccc1N1CCCN(C(=O)CCCS(N)(=O)=O)CC1 | 3.54%
21 | CCNC(=O)N1CC[C@H]2CC(=O)N(CC(N)=O)CC[C@H]2C1 | -1.17%
22 | Cn1nc(Br)c2c(NCCS(N)(=O)=O)ncnc21 | 28.8%
23 | CC(C)(N)c1cn(C2CCN(C3CCSCC3)CC2)nn1 | -6.81%
24 | CSc1ccc(C(CNC(C)=O)N2CCc3sccc3C2)cc1 (stereo unspecified) | -12.8%
25 | NC(=O)C1CCN(c2nc3nccc(-c4cccnc4)c3c(=O)[nH]2)CC1 | -2.94%
26 | CC(C)c1nc2c(n1C)CCN(Cc1nc(-c3cccnc3)no1)C2 | -11.9%
27 | CCN(CC)C(=O)C1CCN(c2ccc(Cl)cc2C#N)CC1 | 10.1%
28 | Cc1nc(C)n(CC2CCCN(c3ncnc4[nH]ccc34)C2)n1 (stereo unspecified) | 3.27%
29 | Cc1cccc(CN2CCc3ncnc(-c4ccsc4)c3CC2)n1 | -13.6%
30 | Cc1ccc(C(=O)NC2CCN(S(C)(=O)=O)CC2)c(=O)[nH]1 | -14.3%
31 | Cc1cccc(N2CCN(C(=O)Cc3ccccc3O)C(C)C2)n1 (stereo unspecified) | -1.34%
32 | Cc1ccc(NC2CCN(C(=O)c3cc(C)no3)CC2)nn1 | 0.395%
33 | Cc1nc(N2CCCC2)ncc1-c1cc(O)nc(N2CCOCC2)n1 | -4.64%
34 | Cc1ccsc1[C@@H]1CCN(C(=O)CCOc2ccccc2)C[C@H]1O | -8.93%
35 | CCn1c(C)cc(C(=O)NCc2cccc(S(=O)(=O)NC)c2)c1C | -4.15%
36 | NC(=O)c1c(NC(=O)CCCC(=O)O)sc2c1CCc1ccccc1-2 | 10.4%
37 | Cc1c(C(=O)NC2CC(C)(C)NC(C)(C)C2)cnn1-c1ccc(F)cc1 | -2.72%
38 | COc1ccc(C2=NOC(C(=O)N3CCCc4ccccc43)C2)cc1 (stereo unspecified) | 8.49%

Row | Structure (SMILES) | cytotoxicity at 70.5 h
39 | CC(=O)NCc1noc2c1CN(Cc1ccsc1)CC2 | -7.56%
40 | Cc1nc(-c2ccccc2)sc1CSCCC(N)=O | 12.1%
41 | Cc1ccc(N2CCOC(C)(C(=O)N(C)C)C2)nn1 (stereo unspecified) | -6.16%
42 | Cc1ncc2c(n1)CN(Cc1nnc(-c3occc3C)o1)CC2 | 4.24%
43 | Cc1ccc(-n2cc(CN3CCOCC(CN(C)C)C3)cn2)cc1C (stereo unspecified) | 37.2%
44 | CC(C)(C(=O)NCCC(=O)O)c1cccc(Br)c1 | -12.3%
45 | Cc1ccc(CN2C[C@@H]3COC[C@H](C(=O)N4CCCCO4)[C@@H]3C2)o1 | -8.64%
46 | CC(=O)N1CCC(Cc2cnc(-c3c(C)n[nH]c3C)cn2)CC1 | 18.9%
47 | CC(C)S(=O)(=O)c1ccccc1C(=O)NCC1Cc2ccccc2O1 (stereo unspecified) | -1.85%
48 | CC(=O)N1C[C@H](NC(=O)c2ccnc(N)c2)[C@@H](C(C)C)C1 | 3.14%
49 | COc1ccc(NC2CCN(C3CC3)C2=O)cn1 (stereo unspecified) | 5.36%
50 | O=C(O)C1(Oc2ccccc2F)CCN(C/C=C/c2ccco2)CC1 | -7.74%
51 | CC(C(=O)NCc1ccc2c(c1)OCCO2)n1cncn1 (stereo unspecified) | 31.8%
52 | CCC(C(=O)NC(C)(C)C)n1cccc(OC)c1=O (stereo unspecified) | -10.3%
53 | Cc1nccc(C2CN(C(=O)c3cncnc3)C2)n1 | -13.8%
54 | Cc1cc(F)ccc1S(=O)(=O)NCc1cccc(C(=O)N2CCCC2)c1 | -14.8%
55 | Cc1nc(C)n(CC2CCCN2Cc2cc(-c3cccs3)on2)n1 (stereo unspecified) | -13.7%
56 | COc1ccc(C(=O)Nc2ccc3ncn(C(C)C)c(=O)c3c2)cc1 | -3.51%

From ChEMBL document CHEMBL3507680, “University of Dundee, Gates Library screen for HepG2 cell viability”
